This passage reports IC50 results from patent US20240208912A1 (Mirati Therapeutics, Inc., priority 2021, published 2024).

The test system of assay [1] is HCT116 homozygous MTAP knockout cells. Kind of assay: Proliferation assay (CellTiter-Glo, 10 days) in HCT116 homozygous MTAP knockout cells. It is filed as cell-based. Particulars: CellTiter-Glo after 10 days of treatment, read-out: Proliferation IC50 (nM) HCT116 MTAP_KO. The protocol: HCT116 cells were genetically engineered to knock out the function of both MTAP alleles using a CRISPR/Cas9 system and an sgRNA targeting the MTAP gene. Following Cas9/MTAP sgRNA transduction, clones were screened to confirm that each allele of the MTAP gene had been inactivated (i.e., homozygous MTAP knock out) creating an MTAP-deficient cell.
Control samples were analyzed in parallel.
Briefly, on Day 0, 250 HCT116 parental or HCT116 homozygous MTAP knockout cell were seeded in 96 well plates in McCoy's 5A supplemented with […] fetal bovine serum and pen/strep and the cells were incubated overnight at 37° C. plus 5% CO2.
The following day, cells were treated with DMSO vehicle control or a dose response of PRMT5 inhibitors and incubated at 37 C plus 5% CO2 for five days. On Day 6, the cells were trypsinized and split 1:10 into new 96-well plates with fresh medium containing the same concentration of PRMT5 inhibitor and incubated for an additional 5 days at 37° C. plus 5% CO^2.
On Day 11, the viability of the cells was measured using a CTG assay kit (CellTiter-Glo; Promega cat.no G7573) in accordance with the manufacturer's instructions. The IC50 values for each compound after 10 days of treatment were calculated using GraphPad PRISM software.

A further assay has as its target T1, PRMT5/MEP50 complex (Homo sapiens, UniProt O14744).
T1 construct: purchased Reaction Biology Corporation
Nature of the assay: PRMT5:MEP50 HotSpot Assay (full-length histone H2A substrate, plus and minus MTA). As to conditions: IC50 + 2 μM MTA, in the presence of 2 μM MTA. The assay is classed as biochemical. The protocol: The PRMT5 inhibitory activity of compounds of the present invention was determined using either a PRMT5:MEP50 FlashPlate Assay (Reaction Biology Corporation) or a PRMT5:MEP50 HotSpot Assay (Reaction Biology Corporation).
The assay uses recombinant full-length hi stone H2A as the PRMT5 substrate. […] The reaction was stopped and transferred to filter paper for detection. The amount of tritiated H2A in each sample was determined using a scintillation counter.

Where two headings read alike, the source gives them in different places.

T1 sequence (O14744 2-637 limits assumed): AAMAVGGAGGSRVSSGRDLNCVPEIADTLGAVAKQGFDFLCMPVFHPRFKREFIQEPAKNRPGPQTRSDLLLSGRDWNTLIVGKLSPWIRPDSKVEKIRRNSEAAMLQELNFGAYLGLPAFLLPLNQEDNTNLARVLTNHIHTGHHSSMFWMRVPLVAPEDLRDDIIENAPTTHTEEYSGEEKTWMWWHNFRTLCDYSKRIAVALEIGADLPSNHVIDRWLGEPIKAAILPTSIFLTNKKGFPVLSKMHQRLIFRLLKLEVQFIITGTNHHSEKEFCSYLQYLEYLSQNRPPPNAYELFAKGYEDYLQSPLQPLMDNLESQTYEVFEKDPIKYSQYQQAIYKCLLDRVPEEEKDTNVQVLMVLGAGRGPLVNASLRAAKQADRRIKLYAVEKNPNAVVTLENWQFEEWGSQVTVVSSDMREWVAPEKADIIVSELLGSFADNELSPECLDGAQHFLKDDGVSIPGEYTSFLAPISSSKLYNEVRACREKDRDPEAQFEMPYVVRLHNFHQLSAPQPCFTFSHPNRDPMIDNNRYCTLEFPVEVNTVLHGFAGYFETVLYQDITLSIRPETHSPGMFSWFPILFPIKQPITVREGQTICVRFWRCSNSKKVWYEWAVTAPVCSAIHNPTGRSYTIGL
T1 sequence (Q9BQA1 2-342 partner limits assumed): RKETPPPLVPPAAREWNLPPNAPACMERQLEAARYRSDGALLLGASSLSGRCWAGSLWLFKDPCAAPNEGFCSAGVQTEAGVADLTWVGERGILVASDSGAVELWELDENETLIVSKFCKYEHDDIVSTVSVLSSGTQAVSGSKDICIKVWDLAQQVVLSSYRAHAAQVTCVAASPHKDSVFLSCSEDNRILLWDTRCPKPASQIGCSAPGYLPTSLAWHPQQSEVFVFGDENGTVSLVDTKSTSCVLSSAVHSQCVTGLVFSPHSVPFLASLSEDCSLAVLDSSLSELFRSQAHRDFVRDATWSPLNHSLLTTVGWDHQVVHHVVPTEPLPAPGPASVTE

On to `Cc1cnc2cc(F)c(-c3c(-c4ccc5c(=O)[nH]nc(CN)c5c4)cnn3C)c(C#N)c2c1` (atropisomer, axis not shown; (M)) [Example 16-35, (M)-6-[4-[4-(aminomethyl)-1-oxo-2H-phthalazin-6-yl]-2-methyl-pyrazol-3-yl]-7-fluoro-3-methyl-quinoline-5-carbonitrile], for which the IC50 in assay [1] (Homo sapiens, HCT-116, 240 h) came to 5 nM; on PRMT5/MEP50 complex, 84 nM.

`Cn1ncc(-c2ccc3c(=O)[nH]nc(CN)c3c2)c1-c1c(F)cc2c(c1C#N)OCCC2` (atropisomer, axis not shown; (M)) [Example 16-38, (M)-7-[4-[4-(aminomethyl)-1-oxo-2H-phthalazin-6-yl]-2-methyl-pyrazol-3-yl]-6-fluoro-chromane-8-carbonitrile]: the figures for the IC50 (in assay [1]; on PRMT5/MEP50 complex) were 39 nM and 83.8 nM, respectively.

Consider `C[C@@H]1C[C@H]1Oc1ccc(F)c(-c2c(-c3ccc4c(=O)[nH]nc(CN)c4c3)cnn2C)c1C#N` (atropisomer, axis not shown; (M)) [Example 16-66, (M)-2-(4-(4-(aminomethyl)-1-oxo-1,2-dihydrophthalazin-6-yl)-1-methyl-1H-pyrazol-5-yl)-3-fluoro-6-((1R,2R)-2-methylcyclopropoxy)benzonitrile], for which the values for the IC50 (in assay [1]; on PRMT5/MEP50 complex) were 35 nM and 107 nM, respectively.

Regarding `COc1cc(F)c(-c2c(-c3ccc4c(=O)[nH]nc(CN)c4c3)cnn2C)c(C#N)c1OC1CC1` (atropisomer, axis not shown; (M)) [Example 16-71, (M)-2-[4-[4-(aminomethyl)-1-oxo-2H-phthalazin-6-yl]-2-methyl-pyrazol-3-yl]-6-(cyclopropoxy)-3-fluoro-5-methoxy-benzonitrile], the IC50 in assay [1] was determined as 50 nM; at PRMT5/MEP50 complex, 142 nM.

Take `CCOc1cc(-c2cnn(C)c2-c2c(F)ccc(OC3CC3)c2C#N)cc2c(CN)n[nH]c(=O)c12` (atropisomer, axis not shown; (M)) [Example 16-74, (M)-2-[4-[4-(aminomethyl)-8-ethoxy-1-oxo-2H-phthalazin-6-yl]-2-methyl-pyrazol-3-yl]-6-(cyclopropoxy)-3-fluoro-benzonitrile]: the IC50 in assay [1] turned out to be 158 nM; at PRMT5/MEP50 complex, 346 nM.

Turning to `Cn1ncc(-c2ccc3c(=O)[nH]nc(CN)c3c2)c1-c1c(F)cc2c(c1C#N)OCO2` (atropisomer, axis not shown; (M)) [Example 16-88, (M)-5-[4-[4-(aminomethyl)-1-oxo-2H-phthalazin-6-yl]-2-methyl-pyrazol-3-yl]-6-fluoro-1,3-benzodioxole-4-carbonitrile], the results for the IC50 (in assay [1]; on PRMT5/MEP50 complex) were 173 nM and 181 nM, respectively.

Regarding `Cc1cnc2c(C#N)c(-c3c(-c4ccc5c(=O)[nH]nc(CN)c5c4)cnn3C)c(F)c(C)c2c1` (atropisomer, axis not shown; (M)) [Example 16-94, (M)-7-(4-(4-(aminomethyl)-1-oxo-1,2-dihydrophthalazin-6-yl)-1-methyl-1H-pyrazol-5-yl)-6-fluoro-3,5-dimethylquinoline-8-carbonitrile], the results for the IC50 (in assay [1]; at PRMT5/MEP50 complex) were 231 nM and 1140 nM, respectively.

On to `Cn1ncc(-c2ccc3c(=O)[nH]nc(CN)c3c2)c1-c1c(F)cc2c(c1C#N)OCCC2` (atropisomer, axis not shown; (P)) [Example 16-37, (P)-7-[4-[4-(aminomethyl)-1-oxo-2H-phthalazin-6-yl]-2-methyl-pyrazol-3-yl]-6-fluoro-chromane-8-carbonitrile], for which the IC50 stood at 216 nM in assay [1] and 102 nM at PRMT5/MEP50 complex.

In the case of `Cn1ncc(-c2ccc3c(=O)[nH]nc(CN)c3n2)c1-c1sc2ccccc2c1C#N` [Example 17-3, 2-[4-[8-(aminomethyl)-5-oxo-6H-pyrido[2,3-d]pyridazin-2-yl]-2-methyl-pyrazol-3-yl]benzothiophene-3-carbonitrile], the IC50 in assay [1] (Homo sapiens, HCT-116, 240 h) was 278 nM.
